# According to PMC7846450 (Science (New York, N.Y.), 2020):
# Target: T1, Glk1 (Saccharomyces cerevisiae, UniProt P17709, F3S)
# T1 sequence (P17709 1-500 F3S): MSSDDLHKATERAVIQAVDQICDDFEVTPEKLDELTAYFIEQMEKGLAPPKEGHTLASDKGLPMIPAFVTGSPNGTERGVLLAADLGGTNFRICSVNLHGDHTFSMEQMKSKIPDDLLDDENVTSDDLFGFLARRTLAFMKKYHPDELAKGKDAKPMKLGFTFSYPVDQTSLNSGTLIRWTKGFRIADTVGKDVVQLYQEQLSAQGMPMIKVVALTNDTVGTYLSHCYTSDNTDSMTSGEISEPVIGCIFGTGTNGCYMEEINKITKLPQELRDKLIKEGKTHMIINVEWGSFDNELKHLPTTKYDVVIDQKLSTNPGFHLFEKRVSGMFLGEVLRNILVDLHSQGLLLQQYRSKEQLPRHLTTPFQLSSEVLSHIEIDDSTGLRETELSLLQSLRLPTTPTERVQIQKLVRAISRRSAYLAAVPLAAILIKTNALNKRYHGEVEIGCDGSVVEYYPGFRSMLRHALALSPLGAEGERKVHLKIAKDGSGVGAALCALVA
# Assay: enzyme activity versus Glk1 concentration
# Format: biochemical
# Settings: non-polymerizing mutant
smiles,measurement,value
OC[C@H]1OC(O)[C@H](O)[C@@H](O)[C@@H]1O (stereo partly shown) [glucose],enzyme activity versus Glk1 concentration,NonPol-Glk1 was enzymatically active but lacked the concentration-dependent inhibition of wild-type Glk1
